Activity calls are given as the source filed them. No cut-off for these calls is given here.

One may read the inhibition as how much of the control response was suppressed.

Data set [1] deals with SGC-7901. As to the kind of experiment: Induction of apoptosis in human SGC-7901 cells assessed as viable cells at 96 nM incubated for 24 hrs by AnnexinV-FITC/PI staining based flow cytometric analysis (reference value: 96.94%). In kind it is functional. The settings on record: read-out: Activity.
Data set [2] relates to SGC-7901. As to the kind of experiment: Induction of apoptosis in human SGC-7901 cells assessed as early apoptotic cells at 96 nM incubated for 24 hrs by AnnexinV-FITC/PI staining based flow cytometric analysis (reference value: 0.47%). The class given is functional.
The subject of data set [3] is SGC-7901. As to the kind of experiment: Induction of apoptosis in human SGC-7901 cells assessed as late apoptotic cells at 96 nM incubated for 24 hrs by AnnexinV-FITC/PI staining based flow cytometric analysis (reference value: 2.00%). In kind it is functional. Background: A flow cytometer gives signals particle by particle.
For data set [4], the system named is SGC-7901. The data set can be described thus: Induction of apoptosis in human SGC-7901 cells assessed as necrotic cells at 96 nM incubated for 24 hrs by AnnexinV-FITC/PI staining based flow cytometric analysis (reference value: 0.63%). In kind it is functional.
Data set [5] has as its system MGC-803. As to the kind of experiment: Induction of apoptosis in human MGC-803 cells assessed as viable cells at 96 nM incubated for 24 hrs by AnnexinV-FITC/PI staining based flow cytometric analysis (reference value: 98.59%). The class given is functional. The settings on record: read-out: Activity.
The test system of data set [6] is MGC-803. As to the kind of experiment: Induction of apoptosis in human MGC-803 cells assessed as early apoptotic cells at 96 nM incubated for 24 hrs by AnnexinV-FITC/PI staining based flow cytometric analysis (reference value: 0.38%). In kind it is functional.
Data set [7] has as its system MGC-803. As to the kind of experiment: Induction of apoptosis in human MGC-803 cells assessed as late apoptotic cells at 96 nM incubated for 24 hrs by AnnexinV-FITC/PI staining based flow cytometric analysis (reference value: 0.52%). In kind it is functional.
Data set [8] has as its system MGC-803. The data set can be described thus: Induction of apoptosis in human MGC-803 cells assessed as necrotic cells at 96 nM incubated for 24 hrs by AnnexinV-FITC/PI staining based flow cytometric analysis (reference value: 0.53%). The class given is functional.
The subject of data set [9] is SGC-7901. As to the kind of experiment: Cell cycle arrest in human SGC-7901 cells assessed as accumulation of cells at G0/G1 phase at 48 nM incubated for 24 hrs by PI staining based flow cytometric analysis (Rvb =84.12%). The class given is functional.
For data set [10], the system named is SGC-7901. The data set can be described thus: Cell cycle arrest in human SGC-7901 cells assessed as accumulation of cells at S phase at 48 nM incubated for 24 hrs by PI staining based flow cytometric analysis (Rvb =18.41%). In kind it is functional.
Data set [11] relates to SGC-7901. The data set can be described thus: Cell cycle arrest in human SGC-7901 cells assessed as accumulation of cells at G2/M phase at 48 nM incubated for 24 hrs by PI staining based flow cytometric analysis (Rvb =18.84%). In kind it is functional.
Data set [12] has as its system MGC-803. As to the kind of experiment: Cell cycle arrest in human MGC-803 cells assessed as accumulation of cells at G0/G1 phase at 48 nM incubated for 24 hrs by PI staining based flow cytometric analysis (Rvb =76.60%). The class given is functional.
Data set [13] concerns MGC-803. As to the kind of experiment: Cell cycle arrest in human MGC-803 cells assessed as accumulation of cells at S phase at 48 nM incubated for 24 hrs by PI staining based flow cytometric analysis (Rvb =7.84%). In kind it is functional.
The test system of data set [14] is MGC-803. The data set can be described thus: Cell cycle arrest in human MGC-803 cells assessed as accumulation of cells at G2/M phase at 48 nM incubated for 24 hrs by PI staining based flow cytometric analysis (Rvb =15.42%). The class given is functional.
Data set [15] has as its target T1, DNA topoisomerase 1 (Homo sapiens) (UniProt P11387).
T1 sequence (whole entry): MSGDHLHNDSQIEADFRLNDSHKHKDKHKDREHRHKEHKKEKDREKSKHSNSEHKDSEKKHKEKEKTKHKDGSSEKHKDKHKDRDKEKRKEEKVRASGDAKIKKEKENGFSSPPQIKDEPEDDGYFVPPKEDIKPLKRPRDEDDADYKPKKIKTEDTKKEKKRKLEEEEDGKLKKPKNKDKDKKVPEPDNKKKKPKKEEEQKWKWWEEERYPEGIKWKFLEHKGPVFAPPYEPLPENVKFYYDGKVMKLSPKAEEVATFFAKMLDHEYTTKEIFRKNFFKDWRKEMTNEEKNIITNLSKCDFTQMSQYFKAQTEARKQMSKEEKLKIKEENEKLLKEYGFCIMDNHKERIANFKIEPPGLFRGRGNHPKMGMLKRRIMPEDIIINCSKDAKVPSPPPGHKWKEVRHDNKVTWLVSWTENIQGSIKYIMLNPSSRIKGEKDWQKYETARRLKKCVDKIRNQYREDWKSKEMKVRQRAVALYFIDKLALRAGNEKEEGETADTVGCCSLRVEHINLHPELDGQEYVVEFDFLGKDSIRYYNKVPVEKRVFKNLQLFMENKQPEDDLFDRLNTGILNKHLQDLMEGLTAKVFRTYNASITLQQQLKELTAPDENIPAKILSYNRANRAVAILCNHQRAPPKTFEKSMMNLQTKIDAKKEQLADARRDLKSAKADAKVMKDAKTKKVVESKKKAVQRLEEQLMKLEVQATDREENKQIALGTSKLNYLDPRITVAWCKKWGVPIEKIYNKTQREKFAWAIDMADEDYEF
The data set can be described thus: Inhibition of Topoisomerase 1 (unknown origin) at 100 uM incubated for 15 mins by electrophoretic analysis.

The target in data set [16] is T1, DNA topoisomerase 1 (Homo sapiens). As to the kind of experiment: Inhibition of Topoisomerase 1 (unknown origin) at 50 uM incubated for 15 mins by electrophoretic analysis.
Data set [17] shares this target. As to the kind of experiment: Inhibition of Topoisomerase 1 (unknown origin) at 25 uM incubated for 15 mins by electrophoretic analysis relative to control.
Data set [18] relates to MGC-803. The data set can be described thus: Antitumor activity against human MGC-803 cells xenografted in BALB/C mouse assessed as tumor growth inhibition at 0.5 mg/kg, ip administered once a day for 17 days relative to control. The class given is functional. As to conditions: MGC-803, 408 h, time 17 day, read-out: TGI. In general terms: In xenograft studies the graft and the host belong to different species.

The nature of data set [19]: Toxicity in BALB/C mouse xenografted with human MGC-803 cells assessed as decrease in body weight at 0.5 mg/kg, ip administered once daily for 17 days. The class given is organism-based. As to conditions: in vivo, 408 h, time 17 day.

`COc1cc([C@@H]2c3cc4c(cc3[C@@H](O[C@@H]3O[C@@H]5CO[C@@H](C)O[C@H]5[C@H](O)[C@H]3O)[C@H]3COC(=O)[C@H]23)OCO4)cc(OC)c1O` [ETOPOSIDE]: the viability at 0.096 µM came out at 87.4% in data set [1] and 87.5% in data set [5]. Moreover, the Activity was 0.75% in data set [2]; 10.98% in data set [3]; 0.91% in [4]; 2.29% in data set [6]; 9.4% in [7]; 0.8% in data set [8]. Also, the Activity in data set [9] turned out to be 62.98%; in data set [10], 17.72%; in data set [11], 19.3%; in [12], 76.34%; in data set [13], 6.96%; in data set [14], 16.63%.
For `Cc1ccc2c(c1)C(=O)N1CCc3c([nH]c4ccc(C)cc34)C1N2c1cccc(F)c1` (stereo not drawn), the inhibition entry in data set [15] and in data set [16] was “Active” in each case. In data set [17], this compound displayed an inhibition of 46.2%.
As for `CC[C@@]1(O)C(=O)OCc2c1cc1n(c2=O)Cc2cc3c(CN(C)C)c(O)ccc3nc2-1` [TOPOTECAN], the viability at 0.096 µM in [1] stood at 88.1%; in data set [5], 77%. The Activity in [2] was 0.8%; in [3], 9.93%; in data set [4], 1.22%; in [6] it was 5.23%; in data set [7] it was 15.95%; in data set [8], 1.75%. In addition, the Activity in data set [9] is given as 58.3%; in data set [10] it was 18.52%; in data set [11] it was 22.72%; in data set [12], 79.72%; in data set [13] it was 6.84%; in [14], 13.27%. For the same compound, in [19], the Activity entry is listed as “Toxic”. Moreover, the inhibition in vivo at 0.5 mg/kg in data set [18] is 67%.

(Values after ChEMBL document CHEMBL5338707, “Design, synthesis and bioactivity evaluation of favorable evodiamine derivative scaffold for developing cancer therapy” (Eur J Med Chem, 2022).)
